# Measurements: paper PMC3989207, “Subchronic Toxicological Study of Two Artemisinin Derivatives in Dogs” (PLoS ONE, 2014)
# Where two headings read alike, the source gives them in different places.
# What was measured:
# beagle dogs [1] = test: Electrocardiography in the 13-week repeated-dose dog study; assay type: in vivo; settings: for Heart rate: 6 mg kg^-1 per day (ART p.o., ARM i.m.), vs control group
# Protocol: (§1) The first day of treatment was regarded as day one in the study. […] Oral administration was performed about 2 h after feeding. ARM was administered by a bolus intramuscular infusion through a 25-gauge needle at a constant volume of 2 ml kg^−1 once a day into the gluteal and infraspinous muscles. Two dogs of each sex from each group were allowed to recover without further treatment for an additional 4 weeks.
# Electrocardiograms were recorded using an Auto Electrocardiogram (ECG-9130P, Nihon Kohden Corporation, Japan). Recordings were taken from each dog, while conscious, every 2 weeks from week-1. Leads I, II, III, aVR, aVL and aVF were utilized. The electrocardiography (ECG) parameters included heart rate, PR, QRS and QT interval, and QRS and T wave amplitudes. As the PQ and QT intervals vary with heart rate, they were adjusted to an RR-interval of 500 ms, corresponding to a heart rate of 120 bpm using the following equation: QT500 = QT – 0.084×(RR – 500).
# [2] = Toxicokinetic analysis of plasma drug levels (HPLC); assay type: in vivo, dog; settings: for AUC: 6 mg kg^−1 daily, ART p.o.; for maximum plasma concentration after dosing: daily i.m. 6 mg kg^−1
# Protocol: as §1
# For toxicokinetic analysis, blood samples were collected on weeks 1, 2, 4, 8 and 13 at 0 (before dosing), 0.5, 1, 2, 4, 8, 12 and 24 h after dosing. Approximately 1 ml blood was drawn from the antebrachial, cephalic or jugular vein of three animals of each sex per time point and deposited into heparinized tubes for immediate centrifugation at 3000 rpm at 4°C for 10 min. The plasma was then immediately transferred to 2 ml polypropylene tubes and stored on dry ice. Samples were stored at −80°C until HPLC analysis.
# beagle dogs [3] = test: Hematology in the 13-week repeated-dose dog study; assay type: in vivo
# Protocol: as §1
# Blood samples were collected from the femoral vein of each dog prior to treatment and every 2 weeks after the first day of treatment. Hematology parameters were measured using an automated hematology analyzer (Sysmex, XT-2000iv, Toa Medical Electronics Co. Ltd., Kobe, Japan) using standard methods. Test parameters included hemoglobin (Hb) levels, the hematocrit (Hct) fraction, erythrocyte (RBC) count, leukocyte (WBC) count, neutrophilic granulocyte fraction (NE%), monocyte fraction (MO%), lymphocyte levels (LY%), platelet count (PLT), reticulocyte count (RET%) and RBC morphology. The following clinical chemistry parameters were measured using a Hitachi-7180 Chemistry Analyzer (High-Technologies Corporation, Tokyo, Japan) and standard methods: glucose, blood urea nitrogen, inorganic phosphorus, creatinine, total protein, albumin, calcium, aspartate aminotransferase (AST), alanine aminotransferase, alkaline phosphatase, total bilirubin, creatine kinase (CK), sodium, potassium and chloride.
# The differential granulocytic and erythrocytic series (erythroid, myeloid blast cell count and the red ratio) were determined manually from blood smears.
# [4] = design: method as in PMID 11060779; settings: cited from earlier work
# Rats = system: Rats; design: method as in Xiao et al. (2002) [31]; settings: cited from earlier work
# Dogs = system: Dogs; design: method as in Classen et al., 1999 [30]; settings: 20 mg kg^−1 per day, i.m. for 30 days, ref Classen et al., 1999 [30]; cited from earlier work
# beagle dogs [5] = test: Ultra-structural examination of liver, kidney and heart by transmission electron microscopy; assay type: in vivo, dog; settings: weeks 4, 8 and 13; TEM
# Protocol: as §1
# (§2) Termination of treatment was scheduled to occur on weeks 4, 8 (two interim necropsies) and 13, followed by a 4-week recovery period. For pathological examinations, the animals were euthanized within 24 h of the final drug administration with sodium pentobarbital, followed by exsanguination via the femoral artery. A gross necropsy was performed, including a thorough visual examination of all the internal organs. Weights were obtained for the brain, heart, liver, spleen, lung, kidneys, adrenals, thyroid/parathyroids, thymus, pancreas and ovaries/testes/prostate, and organ-to-body weight ratios were calculated. For each animal, representative samples from approximately 48 organs and tissues were taken and fixed in neutral buffered 10% formalin, except for the sternum, which was retained in Helly’s fixative (1000 ml distilled water, 25 g potassium dichromate, 10 g sodium sulfate, 50 g mercuric chloride, 50 ml 40% formaldehyde). […]
# beagle dogs [6] = test: Clinical observations; assay type: in vivo
# Protocol: as §1
# All dogs were assessed once daily for mortality and toxicological or other clinical signs, including behavioral changes (such as tremor, gait impairment, balance disturbance and auditory impairment), appetite, excreta (urinalysis for specific gravity, ketone bodies and pH), balance and coordination. Standard and acceptable veterinary health care practices were used during this evaluation to ensure good health of the animals.
# beagle dogs [7] = test: Organ weights at necropsy; assay type: in vivo, dog
# Protocol: as §1, §2
# beagle dogs [8] = test: Severity grading of muscle tissue injury at the intramuscular injection site; assay type: in vivo, dog; settings: for Severity of muscle tissue injury at the injection site: n=4
# Protocol: as §1
# Termination of treatment was scheduled to occur on weeks 4, 8 (two interim necropsies) and 13, followed by a 4-week recovery period. For pathological examinations, the animals were euthanized within 24 h of the final drug administration with sodium pentobarbital, followed by exsanguination via the femoral artery. A gross necropsy was performed, including a thorough visual examination of all the internal organs. Weights were obtained for the brain, heart, liver, spleen, lung, kidneys, adrenals, thyroid/parathyroids, thymus, pancreas and ovaries/testes/prostate, and organ-to-body weight ratios were calculated. For each animal, representative samples from approximately 48 organs and tissues were taken and fixed in neutral buffered 10% formalin, except for the sternum, which was retained in Helly’s fixative (1000 ml distilled water, 25 g potassium dichromate, 10 g sodium sulfate, 50 g mercuric chloride, 50 ml 40% formaldehyde). Histopathological sections of all samples were prepared by embedding in paraffin wax, multiple-sectioning and staining with hematoxylin and eosin (HE). Samples of the left ventricular myocardium, right lateral hepatic lobe and right kidney from two animals of each sex from each group were fixed immediately after exsanguination in 2.5% glutaraldehyde, post-fixed in 1.0% osmium tetroxide, and embedded in plastic. Ultrathin liver, kidney and heart sections were examined with a Hitachi H-600 transmission electron microscope (TEM). All other tissues were examined by light microscopy.
# Gross findings in the ART and ARM treatment groups were limited to the injection sites.
# [9] = week 2 until week 10 post-treatment, vs control groups (p<0.05)
# [10] = oral 80 and 400 mg kg^−1 once every 2 weeks for 5 months, ref Xiao et al. (2002) [31]
# [11] = oral high dose of 400 mg kg^−1, ref Xiao et al. (2002) [31]
smiles,measurement,setting,value
"CO[C@H]1O[C@@H]2O[C@@]3(C)CC[C@H]4[C@H](C)CC[C@@H]([C@H]1C)[C@@]24OO3 [ARM, artemether]",Heart rate,beagle dogs [1]; Week 4,- (“-” = No effect)
same,Heart rate,beagle dogs [1]; Week 8,- (“-” = No effect)
same,Heart rate,beagle dogs [1]; Week 13,- (“-” = No effect)
same,"mean QT intervals (adjusted for heart rate, QT500)","beagle dogs [1]; week 3 until the final drug treatment, male and female dogs, vs vehicle control",prolonged
same,AUC,"[2]; both sexes, beagle, dog, plasma, other: ART p.o., ARM i.m., 6 mg/kg, week 8, ARM i.m., dog plasma, read-out: AUC8w",10.9 ± 11.6 ng·h/mL
same,AUC,"[2]; both sexes, beagle, dog, plasma, other: ART p.o., ARM i.m., 6 mg/kg, week four, ARM i.m., dog plasma, read-out: AUC4w",739 ± 209 ng·h/mL
same,AUC(0-t),"[2]; both sexes, beagle, dog, plasma, other: ART p.o., ARM i.m., 6 mg/kg, read-out: AUC93D",71.3 ± 56.6 ng·h/mL
same,Cmax,"[2]; both sexes, beagle, im, week four, 6 mg kg^−1 daily i.m., dog plasma, read-out: C max, w4",219 ± 41.3 ng/mL
same,half-life,"[2]; both sexes, beagle, im, week four, 6 mg kg^−1 daily i.m., dog plasma, read-out: T 1/2, w4 (biological half-life) (converted)",3 ± 1.16 h
same,Tmax,"[2]; both sexes, beagle, im, week four, 6 mg kg^−1 daily i.m., dog plasma, read-out: T max, w4",0.5 ± 0.03 h
same,maximum plasma concentration after dosing,[2]; day 1,90.63 ± 24.99 µg/L
same,maximum plasma concentration after dosing,[2]; week 4,219.10 ± 41.30 µg/L
same,maximum plasma concentration after dosing,[2]; week 8,46.20 ± 13.15 µg/L
same,maximum plasma concentration after dosing,[2]; week 13,43.85 ± 10.79 µg/L
same,Hematology (overall),"beagle dogs [3]; Week 13, 6 mg kg^-1 per day",- (“-” = No effect)
same,MO%,"beagle dogs [3]; females, after weeks 6, 8 and 10 (p<0.05)",significant increases
same,Hb levels,beagle dogs [3]; week 2,corresponding decrease
same,RBC counts,beagle dogs [3]; week 2,decrease
same,LY%,beagle dogs [3]; [9],decreased
same,NE%,beagle dogs [3]; [9],significantly increased
same,WBC count,beagle dogs [3]; [9],significantly increased
same,RET%,"beagle dogs [3]; week 10, males and females, vs peanut oil control group (p<0.05)",significant increase
same,solubility character,[4],fat soluble
same,Hb levels,Rats; [10],reversible increase
same,QT interval,Rats; [10],No changes
same,reticulocyte count,Rats; [10],reversible reduction
same,liver finding,Rats; [11],transient focal vesicle degeneration of the liver
same,neuropathological alterations,Rats; [11],no evidence of neuropathological alterations
same,Effect (toxicology),Dogs,"Axonal damage in the cerebellar roof, pontine and vestibular nuclei, and in the raphe/ paralemniscal region; hypochromic, microcytic anemia"
same,"ultra-structural findings in hepatocytes, myocardial cells and proximal tubules in the kidney",beagle dogs [5],Mitochondrial bending and distortion and swollen vacuoles
same,behavioral changes,beagle dogs [6]; 6 mg kg^-1 per day i.m. for 13 weeks,not observed
same,main clinical signs,"beagle dogs [6]; 6 mg kg^-1 per day i.m., after treatment for 4 weeks up to the end of the recovery period",skin thickening at the injection site and myonecrosis-like features
same,"absolute or relative weights of brain, heart, liver, spleen, lungs, kidneys, adrenals, thyroid/parathyroids, pancreas, ovaries, testes or prostate","beagle dogs [7]; 6 mg kg^-1 per day, vs relative controls",no statistically significant effects
same,thymus weight,"beagle dogs [7]; weeks 4 and 8, one of the two male dogs, i.m.",mild decrease
same,Severity of muscle tissue injury at the injection site,"beagle dogs [8]; W4, 6 mg kg^−1 i.m., grades 0 (no significant lesions) to 5 (severe)",2.25±0.87
same,Severity of muscle tissue injury at the injection site,"beagle dogs [8]; W8, 6 mg kg^−1 i.m., grades 0 to 5",2.67±0.78
same,Severity of muscle tissue injury at the injection site,"beagle dogs [8]; W13, 6 mg kg^−1 i.m., grades 0 to 5",3.92±1.08
same,Severity of muscle tissue injury at the injection site,"beagle dogs [8]; W17 (after 4-week recovery), grades 0 to 5",3.84±0.72
same,inflammation of muscle tissue at the injection site,"beagle dogs [8]; i.m. injection, vs vehicle control group",more severely inflamed than that in the vehicle control group
